Calls of active or inactive are those of the source. The rule behind the calls is not given here.
What was measured:
Trypanosoma cruzi [1] = assay: Antitrypanosomal activity against Trypanosoma cruzi MHOM/Pe/2011/Arequipa DTU 5 epimastigotes assessed as effect on parasite glycolytic pathway by measuring increase in pyruvate excretion at IC25 after 72 hrs by 1H NMR method; type: functional, organism-based
Trypanosoma cruzi [2] = assay: Antitrypanosomal activity against Trypanosoma cruzi MHOM/Pe/2011/Arequipa DTU 5 epimastigotes assessed as effect on parasite glycolytic pathway by measuring increase in ethanol excretion at IC25 after 72 hrs by 1H NMR method; type: functional
Trypanosoma cruzi [3] = assay: Antitrypanosomal activity against Trypanosoma cruzi MHOM/Pe/2011/Arequipa DTU 5 epimastigotes assessed as effect on parasite glycolytic pathway by measuring increase in L-alanine excretion at IC25 after 72 hrs by 1H NMR method; type: functional, organism-based
Trypanosoma cruzi [4] = assay: Trypanocidal activity against Trypanosoma cruzi MHOM/Pe/2011/Arequipa DTU 5 amastigotes infected in African green monkey Vero cells assessed as infected cells at 50 uM after 72 hrs by Giemsa-staining based assay; type: functional
Trypanosoma cruzi [5] = assay: Antitrypanosomal activity against Trypanosoma cruzi MHOM/Pe/2011/Arequipa DTU 5 epimastigotes assessed as effect on parasite glycolytic pathway by measuring decrease in ethanol excretion at IC25 after 72 hrs by 1H NMR method; type: functional, organism-based
[6] = Hepatotoxicity in Balb/c mouse infected with Trypanosoma cruzi MHOM/Pe/2011/Arequipa DTU 5 trypomastigotes assessed as change in total bilirubin level at 20 mg/kg, po once daily for 5 consecutive days starting from day 75 post infection measured on day 127 post infection (reference value: 0.23 mg/dl); type: toxicity, organism-based; details: in vivo
Trypanosoma cruzi [7] = assay: Antitrypanosomal activity against Trypanosoma cruzi MHOM/Pe/2011/Arequipa DTU 5 epimastigotes assessed as effect on parasite glycolytic pathway by measuring decrease in L-alanine excretion at IC25 after 72 hrs by 1H NMR method; type: functional, organism-based
[8] = (§1) Cardiotoxicity in Balb/c mouse infected with Trypanosoma cruzi MHOM/Pe/2011/Arequipa DTU 5 trypomastigotes assessed as decrease in ratio of creatine kinase in muscle to brain at 20 mg/kg, po once daily for 5 consecutive days starting from day 75 post infection measured on day 81 post infection relative to control; type: toxicity, organism-based; details: in vivo
[9] = as §1, with “Hepatotoxicity” for “Cardiotoxicity”, “increase” for “decrease”, “serum AST” for “creatine kinase in muscle”, “GOT level” for “brain”, “127” for “81”; type: toxicity, organism-based; details: in vivo
[10] = Hepatotoxicity in Balb/c mouse infected with Trypanosoma cruzi MHOM/Pe/2011/Arequipa DTU 5 trypomastigotes assessed as increase in total bilirubin level at 20 mg/kg, po once daily for 5 consecutive days starting from day 10 post infection measured on day 16 post infection relative to control; type: toxicity, organism-based; details: in vivo
[11] = Hepatotoxicity in Balb/c mouse infected with Trypanosoma cruzi MHOM/Pe/2011/Arequipa DTU 5 trypomastigotes assessed as increase in serum ALT to GPT level at 20 mg/kg, po once daily for 5 consecutive days starting from day 10 post infection measured on day 16 post infection relative to control; type: toxicity, organism-based; details: in vivo

With CCCCCCCCCCCCCCCCNc1c(N(C)CCCN(C)C)c(=O)c1=O the Activity (Trypanosoma cruzi [1]) was “Active”, the Activity (Trypanosoma cruzi [2]) was 51% and the Activity (Trypanosoma cruzi [3]) was “Active”. It also gave an Activity (Trypanosoma cruzi [4]) of 0.

With CCCCCCNc1c(N(C)CCCN(C)C)c(=O)c1=O the Activity (Trypanosoma cruzi [5]) was “Active”, the Activity [6] was 0.2 mg/dL and the Activity (Trypanosoma cruzi [7]) was “Active”.

O=C(Cn1ccnc1[N+](=O)[O-])NCc1ccccc1 [BENZNIDAZOLE] showed an Activity [8] of 10 to 20 U/L, an Activity [9] of 10 to 20 U/L and an Activity [10] of 20 to 30 mg/dL. It also gave an Activity [11] of over 40 U/L.

Reference: ChEMBL document CHEMBL4411344, “Synthesis and biological evaluation of new long-chain squaramides as anti-chagasic agents in the BALB/c mouse model” (Bioorg Med Chem, 2019)
